Results from US11920185B2, “Method of inactivating microbes by citraconic anhydride” (Roche Molecular Systems, Inc., priority 2015, dated 2024).
Read-outs that look alike come from different tables or passages of the source.

System: lambda bacteriophage GT11
Experiment: Titering (plaque assay) of citraconic anhydride-treated lambda bacteriophage on E. coli Y1088
Type: cell-based
Conditions: for Titer, Tricine, After 1 month / Titer, Tricine, Day 1: stored in 10 mM Tricine pH 8.3; for Titer, Tris, After 1 month / Titer, Tris, Day 1: stored in 10 mM Tris pH8.3; for Titer pfu/ml (at 1 month): stored one month at 4° C.
Experimental: In order to analyze lambda bacteriophage GT11 inactivation using citraconic anhydride (also referred to as “Cit” or “cit”), a titration was performed.
10 μl of working solution of citraconic anhydride in DMF was added to 1 ml lambda bacteriophage in SM buffer, which is 0.1 M NaCl, 10 mM MgSO^4, 50 mM Tris pH 7.5, 0.01% gelatin (Sambrook and Russell, supra, page A2.8) where the phage was provided at 1×10^7 pfu/ml). The reaction was performed at room temperature for 1 hour and then stored at 4° C. for 7 days to one month. The phage solutions were titered to determine the effect of the citraconic anhydride modification on the phage.
Titering of bacteriophage was performed as follows: The host bacterium, E. coli Y1088, was inoculated into 15 mls luria broth supplemented with 10 mM MgSO4 and 0.2% Maltose (w/v) using a 0.1% inoculum and incubated at 37° C. to an OD<=1. The cells were concentrated by centrifugation (10 minutes at 500×g) and the cell pellet resuspended in ½ volume of sterile 10 mM MgSO4. The E. coli cells were diluted to 0.5 OD600 with 10 mM MgSO4. The bacteriophage was serially diluted in SM Buffer as follows. Pipet 10 μL phage into the tube labeled 10^−2. Resuspend by vortexing. Using a new tip, pipet 10 μL of the 10^−2 dilution into the tube labeled 10^−4. Resuspend by vortexing. Repeat the 100-fold serial dilutions to the 10^−8 tube. From the 10^−8 tube, perform 10-fold dilutions to the 10^−9 and 10^−10 tubes. Add 100 μL of phage from the 10^−8 s to the 10^−9 tube, vortex, and add 100 μL from the 10^−9 tube to the 10^−10 tube. Vortex the 10^−10 tube. Add 300 μL E. coli to each of 5 sterile 17×100 mm Falcon polypropylene round bottom tubes (#352057) for each sample being titered. Add 100 μL of the diluted […] to the tube (dilutions 10^−4, 10^−6, 10^−8, 10^−9 and 10^−10). Let sit 10 minutes at room temperature. Incubate 10 minutes at 37° C. Meanwhile, label the NZCYM plates with the phage sample and the dilution. To the first tube still in the 37° C. heat block, add 3 mL top agar (from the bottle of top agar in the 50° C. bath), vortex the tube, and quickly pour onto the NZCYM plate. Swirl the plate quickly so the top agar covers the entire plate. Allow the top agar to solidify on the bench. Repeat with each tube. Incubate the plates at 37° C. overnight in an inverted position. The next day, count the plaques and calculate the titer by using the dilution which provides the most countable number of plaques.
This experiment tested the stability of citraconic anhydride (Cit)-treated lambda bacteriophage. Phage was inactivated using different Cit concentrations and stored for one month at 4° C.
Bacteriophage targets treated with different concentrations of Cit were stored in different buffers and then evaluated for their inactivation status. Targets were stored in either 10 mM Tris pH8.3 or 10 mM Tricine pH 8.3.

## CC1=CC(=O)OC1=O [citraconic anhydride]
  Day 1 - Titer: 6.7 × 10^6 pfu/ml
1.1 μM final concentration, stored at 4° C.
  Day 8 - Titer: 3.9 × 10^7 pfu/ml
11 μM final concentration
  Day 1 - Titer: 9.0 × 10^6 pfu/ml
11 μM final concentration, stored at 4° C.
  Day 8 - Titer: 2.9 × 10^7 pfu/ml
0.11 mM final concentration
  Day 1 - Titer: 5.5 × 10^6 pfu/ml
0.11 mM final concentration, stored at 4° C.
  Day 8 - Titer: 3.6 × 10^7 pfu/ml
1.1 mM final concentration
  Day 1 - Titer: 1.8 × 10^6 pfu/ml
1.1 mM final concentration, stored at 4° C.
  Day 8 - Titer: 2.0 × 10^7 pfu/ml
5.5 mM Cit
  Titer, Tricine, After 1 month: 3 × 10^3 pfu/ml
  Titer, Tricine, Day 1: 1 × 10^3 pfu/ml
  Titer, Tris, After 1 month: 0 pfu/ml
  Titer, Tris, Day 1: 1.5 × 10^3 pfu/ml
5.5 mM final Cit concentration
  Titer pfu/ml (Day 1): 1.5 × 10^6 pfu/ml
  Titer pfu/ml (at 1 month): 1.5 × 10^6 pfu/ml
11 mM Cit
  Titer, Tricine, After 1 month: 0 pfu/ml
  Titer, Tricine, Day 1: 0 pfu/ml
  Titer, Tris, After 1 month: 0 pfu/ml
  Titer, Tris, Day 1: 0 pfu/ml
11 mM final Cit concentration
  Titer pfu/ml (Day 1): 0 pfu/ml
  Titer pfu/ml (at 1 month): 0 pfu/ml
11 mM final concentration in reaction with phage, 1 h room temperature, phage 1×10^7 pfu/ml in SM buffer
  Day 1 - Titer: 0 pfu/ml
11 mM final concentration, stored at 4° C.
  Day 8 - Titer: 0 pfu/ml
11 mM, persisted after 7 days
  Phage inactivation: complete inactivation
22 mM Cit
  Titer, Tricine, After 1 month: 0 pfu/ml
  Titer, Tricine, Day 1: 0 pfu/ml
  Titer, Tris, After 1 month: 0 pfu/ml
  Titer, Tris, Day 1: 0 pfu/ml
22 mM final Cit concentration
  Titer pfu/ml (Day 1): 0 pfu/ml
  Titer pfu/ml (at 1 month): 0 pfu/ml
Cit-treatment at >=11 mM, storage in 10 mM Tris pH8.3 or 10 mM Tricine pH 8.3
  Persistence of phage inactivation after storage: provides inactivation for 1 month
Greater than or equal to 11 mM, stored at 4° C.
  Persistence of phage inactivation: remain inactivated for 1 month
